According to US10478505B2, “Edible oils to enhance delivery of orally administered steroids” (The Regents of the University of California, priority 2011, dated 2019):
Entries after “also recorded” stand apart in the source; their conditions may differ.

Key:
[1] = Central nervous system effects of allopregnanolone in aqueous hydroxypropyl-beta-cyclodextrin solution; format: in vivo
NIH Swiss mice [2] = experiment: Irwin Test behavioral scoring (sedation); format: in vivo, mouse; settings: 250 mg/kg in canola oil, oral
Protocol: (§1) NIH Swiss mice were fasted 2 hours prior to experiment participation. Allopregnanolone (ALP) was suspended in vehicle (Tween 80 or canola oil). The time point of maximal effect of ALP was established by gavaging ALP and scoring relevant behavioral parameters outlined in the Irwin Test. See, Sylvain Roux, et al., Current Protocols in Pharmacology, Unit Number: UNIT 10.10, DOI: 10.1002/0471141755.ph1010s27 Online Posting Date: January, 2005. Lethality, convulsion, tremor, Straub, abnormal gait, fear, sedation, reactivity to touch, loss of traction, loss of righting reflex were measured.

NIH Swiss mice [3] = experiment: PTZ seizure challenge (80 mg/kg PTZ s.c.); format: in vivo, mouse
Protocol: as §1
Anticonvulsant potential of ALP was determined with PTZ seizure challenge. Oral gavage various ALP concentrations at 50 μl/10 g body weight, t=−45 min or t=−90 min, 80 mg/kg PTZ s.c. at t=0. Observe 30 min for seizure protection (absence of clonic spasms).

NIH Swiss mice [4] = experiment: 6-Hz seizure test; format: in vivo, mouse; settings: dissolved in canola oil (10 mg/ml), 200 mg/kg, 32 mA for 3 s
Protocol: (§2) Animals. Male NIH Swiss mice (22-30 g) were housed four per cage. Animals were kept in a vivarium under controlled laboratory conditions (temperature, 22-26° C.; humidity, 40-50%) with an artificial 12-h light/dark cycle and free access to food and water. Animals were allowed to acclimate to the vivarium for ≥5 days. The experiments were performed during the light phase of the light/dark cycle after a ≥30-min period of acclimation to the experimental room. Animals were maintained in facilities fully accredited by the Association for Assessment and Accreditation of Laboratory Animal Care, and all studies were performed under protocols approved by the University of California, Davis, Institutional Animal Care and Use Committee the Animal Care and Use in strict compliance with the Guide for the Care and Use of Laboratory Animals of the National Research Council (National Academy Press, Washington, D.C.; on the internet at nap.edu/readingroom/books/labrats/).
Test substances and drug administration. Solutions of allopreganolone (SAFC Pharma, Madison, Wis., U.S.A.) were made in miglyol (Neobee M5®, Spectrum Chemicals, Gardena, Calif.), canola oil (ConAgra Foods, Omaha, Nebr.) or peanut oil (Sigma-Aldrich, St. Louis, Mo.). […]
6-Hz seizure test. […] Animals were scored as protected or not protected. […]

[5] = Dissolution of allopregnanolone in oils; format: physicochemical; settings: three oils: miglyol, canola oil, peanut oil
Protocol: (§3) Test substances and drug administration. Solutions of allopreganolone (SAFC Pharma, Madison, Wis., U.S.A.) were made in miglyol (Neobee M5®, Spectrum Chemicals, Gardena, Calif.), canola oil (ConAgra Foods, Omaha, Nebr.) or peanut oil (Sigma-Aldrich, St. Louis, Mo.). The convulsant agent pentylenetetrazol (PTZ) (Sigma-Aldrich, St. Louis, Mo.) was dissolved in saline immediately before use and administered intravenously (i.v.). For the PTZ threshold test, allopregnanolone solutions were administered orally (p.o.) 30 min, 1 hr and 2 hr before PTZ infusion, in a volume equaling 10 ml/kg. For the 6-Hz seizure test, solutions of allopregnanolone in canola oil were administered in a volume equaling 20 ml/kg.

NIH Swiss mice [6] = experiment: PTZ seizure threshold test (intravenous PTZ infusion); format: in vivo, mouse; settings: for anticonvulsant activity in the PTZ seizure threshold test (seizure threshold): 50 mg/kg (5 mg/ml) and 100 mg/kg (10 mg/ml)
Protocol: as §2, §3
PTZ seizure threshold test. The threshold for various behavioral seizure stages induced by the GABA receptor antagonist PTZ, was determined by infusing PTZ via a 27-gauge, 0.75-inch “butterfly” needle inserted into the lateral tail vein. The needle was secured to the tail vein by a narrow piece of adhesive tape, and the animal was permitted to move freely inside an inverted plastic container with free aeration from the top. PTZ (10 mg/ml) were infused at a constant rate of 0.5 ml/min using a 1-ml syringe (BD Biosciences, Franklin Lakes, N.J.) mounted on a Harvard infusion pump (Harvard Apparatus Inc., Holliston, Mass.). The syringe was connected to the needle by polyethylene tubing. The infusion was stopped at 3 min or at the onset of tonic extension, whichever occurred first. The thresholds to the onset of tonic hindlimb extension were determined by measuring the latency from the start of convulsant infusion to the onset of all the response. The threshold value (milligrams per kilogram) was determined according to the following formula: (infusion duration [seconds]×infusion rate [milliliters per minute]×convulsant drug concentration [milligrams per milliliter]×1000)/(60 s×weight of mouse [grams]).

[7] = oral delivery in canola oil (FIG. 4)

In the case of CC(=O)[C@H]1CCC2C3CC[C@H]4C[C@H](O)CC[C@]4(C)C3CC[C@@]21C (stereo in doubt) [allopregnanolone, 1-(3-Hydroxy-10,13-dimethyl-2,3,4,5,6,7,8,9,11,12,14,15,16,17-tetradecahydro-1H-cyclopenta[a]phenanthren-17-yl)ethanone], the “central nervous system effects” value ([1]; high doses administered orally in aqueous solution of hydroxypropyl-beta-cyclodextrin) is reported as “failed to produce central nervous system effects”, the “central nervous system effects” value ([1]; parenteral administration as aqueous solution in hydroxypropyl-beta-cyclodextrin) is reported as “readily causes central nervous system effects” and the sedation (NIH Swiss mice [2]) is reported as “profound sedation”. The “anticonvulsant activity in the pentylenetetrazol seizure test” value (NIH Swiss mice [3]; 250 mg/kg in canola oil, oral) was “anticonvulsant activity”, the effective threshold dose (NIH Swiss mice [3]; [7]) was 25 to 75 mg/kg and the oral bioavailability (NIH Swiss mice [3]; [7]) was “markedly enhances”. The “activity in the 6-Hz seizure test” value (NIH Swiss mice [4]) was “had activity”, the dissolution in oils [5] was “readily dissolve” and the “duration of anti-seizure activity” value (NIH Swiss mice [6]; dissolved in canola oil and peanut oil, oral route) was “long-lasting anti-seizure activity”. The “anti-seizure activity 120 to 240 min after administration” value (NIH Swiss mice [6]; dissolved in canola oil or peanut oil, oral, 120 to 240 min after administration, in some cases) was “activity was also present”, the “anti-seizure activity 30 min after administration” value (NIH Swiss mice [6]; dissolved in canola oil or peanut oil, oral, 30 min after administration) was “no or only minimal activity” and the “anti-seizure activity 60 min after administration” value (NIH Swiss mice [6]; dissolved in canola oil or peanut oil, oral, 60 min after administration) was “strong activity”. For the same molecule, the “anticonvulsant activity in the PTZ seizure threshold test (seizure threshold)” value (NIH Swiss mice [6]; dissolved in canola oil, orally administered) was “activity was obtained; also recorded: time-dependent increase in seizure threshold”, the “anticonvulsant activity in the PTZ seizure threshold test” value (NIH Swiss mice [6]; dissolved in miglyol, orally administered, 100 mg/kg) was “no bioactivity; also recorded: no activity; also recorded: inactive” and the “anticonvulsant activity in the PTZ seizure threshold test (seizure threshold)” value (NIH Swiss mice [6]; dissolved in peanut oil, orally administered) was “activity was obtained; also recorded: time-dependent increase in seizure threshold”.
